In this experiment the target is human SIRT1 (Homo sapiens (Human), UniProt Q96EB6). Briefly: SIRT1 in vitro deacetylation assay (Fluor-de-Lys, acetylated AMC-labeled p53 peptide). The experiment is classed as biochemical. The following applies: 50 μM substrate peptide, 500 μM NAD+, 30° C., 2 h; for IC50: concentration reducing enzyme activity by 50%, read-out: IC50 (SIRT1 inhibitors); for Emax: SIRT1 activation, read-out: Max (%), percentage of maximum activation achieved; for EC1.5 (concentration raising enzyme activity by 50%): concentration required to increase the enzyme activity by 50%, read-out: EC1.5 (SIRT1 activators). How it is done:
The inhibitory activity is measured as the concentration of compound required to reduce the enzyme activity by 50% (IC50).
Activation in this assay is measured both as the concentration of compound required to increase the enzyme activity by 50% (EC1.5) as well as by the percentage of maximum activation achieved (Max %) (see, FIG. 1).
The reactions were carried out in a 96-well microplate for fluorometry in a 50 μl reaction volume. After the deacetylation reaction, Fluor-de-Lys-Developer II (BioMol. Cat. #KI-176) was added to each well to digest the deacetylated substrate, thus producing the fluorescent signal. The reaction was allowed to develop for 45 minutes at 30° C. with 5% CO2; then the fluorescent signal was measured with an excitation wavelength at 360 nm and an emission wavelength at 460 nm in a microplate-reading fluorometer (GeminiXS; Molecular Devices, Sunnyvale, Calif.). […] All experiments were performed in triplicate.

Chain of human SIRT1 (Q96EB6 whole entry): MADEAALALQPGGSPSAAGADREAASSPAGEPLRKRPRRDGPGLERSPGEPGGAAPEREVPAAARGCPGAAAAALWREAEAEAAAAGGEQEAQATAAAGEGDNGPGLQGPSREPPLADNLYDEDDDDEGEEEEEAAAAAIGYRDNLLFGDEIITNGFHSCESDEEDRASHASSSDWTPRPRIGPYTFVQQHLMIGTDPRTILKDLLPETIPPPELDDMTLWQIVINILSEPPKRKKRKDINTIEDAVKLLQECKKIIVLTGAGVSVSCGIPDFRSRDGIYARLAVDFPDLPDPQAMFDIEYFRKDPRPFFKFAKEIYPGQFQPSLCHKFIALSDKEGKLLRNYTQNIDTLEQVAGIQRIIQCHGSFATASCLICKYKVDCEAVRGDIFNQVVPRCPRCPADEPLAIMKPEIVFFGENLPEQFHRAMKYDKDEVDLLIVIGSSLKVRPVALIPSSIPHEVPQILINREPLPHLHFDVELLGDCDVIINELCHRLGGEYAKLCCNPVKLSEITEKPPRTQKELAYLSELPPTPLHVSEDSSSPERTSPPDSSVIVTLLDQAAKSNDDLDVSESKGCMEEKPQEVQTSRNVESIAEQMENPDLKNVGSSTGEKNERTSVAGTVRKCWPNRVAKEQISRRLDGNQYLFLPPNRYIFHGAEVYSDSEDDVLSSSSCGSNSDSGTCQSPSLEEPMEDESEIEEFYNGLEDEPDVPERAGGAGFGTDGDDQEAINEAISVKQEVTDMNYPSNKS

For `Oc1cc(O)c2c(-c3ccc(F)cc3)coc2c1` [Example 19, 3-(4-fluorophenyl)benzofuran-4,6-diol], the IC50 is 192 µM.

Take `Oc1ccc(-c2cc3c(O)cc(O)cc3o2)cc1` [Example 9, 2-(4-hydroxyphenyl)-1-benzofuran-4,6-diol]: the Emax was found to be 444% and the EC1.5 (concentration raising enzyme activity by 50%) is 3.55 nM.

In the case of `Oc1cc(O)c2c(-c3cc(F)cc(F)c3)c(Br)oc2c1` [Example 20, 2-bromo-3-(3,5-difluorophenyl)benzofuran-4,6-diol], the half-maximal inhibitory concentration (IC50) amounted to 76.3 µM.

Regarding `Oc1cc(O)c2cc(-c3ccc(F)cc3)oc2c1` [Example 10, 2-(4-fluorophenyl)-1-benzofuran-4,6-diol], the Emax was 279% and the EC1.5 (concentration raising enzyme activity by 50%) came to 13.5 nM.

For the compound `Oc1cc(O)cc(-c2cc3c(O)cc(O)cc3o2)c1` [Example 8, 2-(3,5-dihydroxyphenyl)-1-benzofuran-4,6-diol], the Emax came out at 407% and the EC1.5 (concentration raising enzyme activity by 50%) worked out at 1.32 nM.

For the compound `Oc1cc(O)c2c(-c3cc(F)cc(F)c3)coc2c1` [Example 16, 3-(3,5-difluorophenyl)-1-benzofuran-4,6-diol], the IC50 was found to be 274 µM.

For `COc1ccc(-c2cc3c(O)cc(O)cc3o2)c(OC)n1` [Example 12, 2-(2,6-dimethoxypyridin-3-yl)benzofuran-4,6-diol], the Emax came out at 130%.

Turning to `Oc1cc(O)c2cc(-c3cc(F)cc(F)c3)oc2c1` [Example 13, 2-(3,5-difluorophenyl)benzofuran-4,6-diol], the IC50 is 36.7 µM.

Turning to `Oc1cc(O)cc(-c2cc3ccc(O)cc3o2)c1` [5-(6-hydroxy-1-benzofuran-2-yl)benzene-1,3-diol, reference compound], the Emax worked out at 451% and the EC1.5 (concentration raising enzyme activity by 50%) amounted to 11.5 nM.

Regarding `Oc1ccc(C=Cc2cc(O)cc(O)c2)cc1` [Resveratrol, resveratrol, reference compound], the Emax was 475%.

With `Oc1cc(O)c2cc(-c3cc(O)c(O)c(O)c3)oc2c1` [Example 11, 5-(4,6-dihydroxy-1-benzofuran-2-yl)benzene-1,2,3-triol], the IC50 is 1.84 µM.

As to `Oc1ccc(-c2coc3cc(O)cc(O)c23)cc1` [Example 15, 3-(4-hydroxyphenyl)-1-benzofuran-4,6-diol], the concentration for half-maximal inhibition (IC50) was determined as 22.8 µM.

The values above are taken from patent publication US8835659B2, “Polysubstituted benzofurans and medicinal applications thereof” (Ikerchem, S.L., priority 2010, dated 2014).
